The text below walks through data of publication PMC8393326, “A Thermodynamic Analysis of the Binding Specificity between Four Human PDZ Domains and Eight Host, Viral and Designed Ligands” (Biomolecules, 2021).

Read-outs that look alike come from different tables or passages of the source. Where no end group is shown, it is not given here.

Assay [1] addresses Erbin-PDZ. The settings on record: ERBB2 C-terminal tail of 9 residues; cited from earlier work. From the text:
Again, no class II or III peptides were able to bind PSD95-PDZ3 either. […] Instead, the striking resu ...

The target in assay [2] is T1, PSD95-PDZ2 (Homo sapiens, UniProt P78352).
T1 construct: PSD95-PDZ2 (residues 155–249, according to PSD95 numbering); made in house; host or cells: Escherichia coli BL21-DE3
The assay is described as follows: ITC titration of PSD95-PDZ2 with peptides. Type of assay: binding. Conditions: for Kd: ITC, 25 °C, 50 mM potassium phosphate pH 7.5, protein 70 μM in cell, peptide 900 μM, single-site model, n 0.8 to 1.1; for interaction or not with PSD95 PDZ2: Figure 1 summary, ITC, and DSC where ITC showed no binding. Details: key to interaction or not with PSD95 PDZ2: The tick (✓) and the cross (✕) signs mean whether there is interaction or not, respectively, as demonstrated in this study; The tick (✓) and the cross (✕) signs mean whether there is interaction or not, respectively, as demonstrated in this study. Here is the method: (§1) The DNA encoding the sequences of PSD95-PDZ2 (residues 155–249, according to PSD95 numbering), PSD95-PDZ3 (residues 302–415, according to PSD95 numbering), nNOS-PDZ (residues 1–127, in nNOS numbering) and Erbin-PDZ (given generously by Prof. Sachdev Sidhu, University of Toronto, Toronto, ON, Canada), were sub-cloned into pBAT4 vector (EMBL Core Purification Facility, Heidelberg, Germany) and expressed in Escherichia coli BL21-DE3 cells. Protein purification was carried out as previously described. Briefly, cultures were over-expressed overnight and centrifuged. After cell lysis with a French press, the lysates were centrifuged and the pH of the supernatant was lowered down to a pH of 3 with diluted HCl. Upon centrifugation, ammonium sulfate was added to the samples, which were then injected into an AKTA FPLC for preparative size exclusion chromatography. Roughly 15 milligrams of protein per liter of LB culture were obtained and purity was determined by SDS-Page electrophoresis. MALDI-TOF spectrometry, performed at the Scientific Instrumentation Services (CIC) of the University of Granada (Granada, Spain), confirmed the molecular mass for each PDZ domain. Extinction coefficients, determined as described, were used to calculate sample concentration. Experimental samples were always prepared by extensive dialysis against 50 mM potassium phosphate buffer at a pH of 7.5 and 4 °C.
(§2) Calorimetric titrations of the PDZ domains with the peptides were undertaken at 25 °C on an ITC-200 titration microcalorimeter (Microcal Inc., Northampton, MA, USA), as previously described. Protein concentrations in the cell were routinely 70 μM and peptides solutions were prepared using the dialysis buffer to have a final concentration of 900 μM. Titrations were all made by injecting 2 μL volumes of ligand solution, with a final number of 19 injections per experiment. As a control and reference, independent experiments were carried out with only buffer in the calorimeter cell with the same ligand solutions to determine the corresponding heat dilution. The dilution isotherms were then subtracted from that obtained for protein titration. The binding stoichiometry, n, the dissociation constant, Kd and the corresponding enthalpy change, ΔH, were determined by fitting the resulting titration isotherm to a model considering a single ligand binding site using ORIGIN 7.0 (OriginLab Corporation, Northampton, MA, USA, 2002).
(§3) We performed ITC experiments at 25 °C between all the selected PDZ domains and peptides. For the sake of comparison, the experiments were all conducted in the same buffer conditions, 50 mM potassium phosphate and pH of 7.5, which presents the advantage of having an insignificant protonation heat, meaning that the experimentally determined enthalpy changes should just account for the net heat of reaction. A table summarizing all interactions is shown in Figure 1, whilst we have just included the successful experiments graphs, both in Figure 2 and in the SI (Figure S1).

Assay [3] concerns the target T2, PSD95-PDZ3 (Homo sapiens, UniProt P78352).
T2 construct: PSD95-PDZ3 (residues 302–415, according to PSD95 numbering); made in house; host or cells: Escherichia coli BL21-DE3
Description: ITC titration of PSD95-PDZ3 with peptides. The format is binding. Details: key to interaction or not with PSD95 PDZ3: The tick (✓) and the cross (✕) signs mean whether there is interaction or not, respectively, as demonstrated in this study; The tick (✓) and the cross (✕) signs mean whether there is interaction or not, respectively, as demonstrated in this study. The settings on record: for Kd: ITC, 25 °C, 50 mM potassium phosphate pH 7.5, protein 70 μM in cell, peptide 900 μM, single-site model, n 0.8 to 1.1; for interaction or not with PSD95 PDZ3: Figure 1 summary, ITC, and DSC where ITC showed no binding. Here is the method: as §1, §2, §3

The target of assay [4] is T3, Erbin-PDZ (Homo sapiens, UniProt Q96RT1).
T3 construct: made in house; host or cells: Escherichia coli BL21-DE3
Description: ITC titration of Erbin-PDZ with peptides. Also noted: key to interaction or not with Erbin PDZ: The tick (✓) and the cross (✕) signs mean whether there is interaction or not, respectively, as demonstrated in this study; The tick (✓) and the cross (✕) signs mean whether there is interaction or not, respectively, as demonstrated in this study. Conditions: for Kd: 50 mM potassium phosphate pH 7.5, protein 70 μM in cell, peptide 900 μM, single-site model, n 0.8 to 1.1; for interaction or not with Erbin PDZ: Figure 1 summary, ITC, and DSC where ITC showed no binding. The format is binding. Here is the method:
as §1, §2, §3

The test system of the next assay is nNOS-PDZ. Description: DSC of nNOS-PDZ with and without peptides (Tm displacement). Type of assay: binding, human. Details: key to interaction or not with nNOS PDZ: The tick (✓) and the cross (✕) signs mean whether there is interaction or not, respectively, as demonstrated in this study; The tick (✓) and the cross (✕) signs mean whether there is interaction or not, respectively, as demonstrated in this study. The settings on record: for ΔTm of nNOS-PDZ: DSC, PDZ:peptide 1:3, 50 mM potassium phosphate pH 7.5, nNOS-PDZ alone 55 °C; for interaction or not with nNOS PDZ: Figure 1 summary, no binding by ITC, interaction shown by DSC. The procedure:
(§4) Experiments were carried out in a VP-DSC instrument from Microcal INC. as described elsewhere. The buffer conditions were the same as with ITC experiments, 50 mM buffer potassium phosphate at a pH of 7.5. For experiments including the peptides, the final concentration ratio was 1:3 (protein:peptide). Final data were obtained after treatment with ORIGIN 7.0 (OriginLab Corporation, Northampton, MA, USA, 2002).
(§5) The final ratio of PDZ:peptide was always 1:3. DSC is also a calorimetric technique but that allows finding a more subtle binding, weaker than that from ITC [33]. Undoubtedly, ITC presents greater advantages, since it gives an exhaustive characterization of the binding interaction, granting the whole thermodynamics of the system; nevertheless, if the interactions are out of the ITC range, usually when they are weak (Kd values in the mM range), it is not sensitive enough to detect binding. By contrast, DSC can detect weak binding by a displacement of the melting temperature (Tm) due to the stabilization that occurs upon binding. Essentially, when a ligand is bound to the protein, energy is needed to decouple the interacting pair before protein denaturalization. In this way, the Tm is increased and the ΔTm is proportional to the interaction energy.

The target in assay [5] is T2, PSD95-PDZ3. The settings on record: cited from earlier work. From the text:
Unfortunately, the calorimetric traces for nNOS-PDZ are highly irreversible, which prevents an analysis that would potentially yield a Kd value. Instead, we can approximately estimate a Kd range based on previous cases in PDZ binding. We have taken as a reference two PDZ-peptide interactions. Firstly, the binding of PSD95-PDZ3 with the peptide KKETAV formerly described by us. We had previously performed both ITC and DSC with PSD95-PDZ3 and KKETAV. The concentrations ...

Assay [6] has as its target T1, PSD95-PDZ2. The assay is described as follows: DSC of PSD95-PDZ2 with and without peptides. The format is binding. The settings on record: PDZ:peptide 1:3, 50 mM potassium phosphate pH 7.5 (Figure S2). Here is the method:
as §4, §5

T2 sequence (P78352 302-415): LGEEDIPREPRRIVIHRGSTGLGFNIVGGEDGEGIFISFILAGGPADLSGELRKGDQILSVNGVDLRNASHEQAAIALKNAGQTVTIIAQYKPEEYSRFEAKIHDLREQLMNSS
T1 sequence (P78352 155-249): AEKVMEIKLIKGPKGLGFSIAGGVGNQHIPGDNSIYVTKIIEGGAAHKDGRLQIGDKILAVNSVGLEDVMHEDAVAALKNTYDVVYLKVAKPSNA
T3 sequence (Q96RT1 1321-1410 limits assumed): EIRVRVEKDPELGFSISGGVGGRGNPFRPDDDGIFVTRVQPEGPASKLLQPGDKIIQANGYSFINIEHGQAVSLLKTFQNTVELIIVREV

“EYLGLDVPV [ERBB2 C-terminal tail comprising 9 residues, literature value]”: the Kd at Erbin-PDZ [1] is ~50 µM.
FRETEV [HTLV1 Tax]: the Kd came to 1.5 ± 0.1 µM on PSD95-PDZ2 [2]; 3.8 ± 0.2 µM at PSD95-PDZ3 [3]; 7.8 ± 0.9 µM on Erbin-PDZ [4] (ITC, 25 °C).
Consider “GLDVPV (UniProt P04626 1250-1255, looked up, fragment) [ERBB2, six-residue C-terminal peptide of host receptor tyrosine kinase ERBB2, class II PDZ ligand]”, for which the “interaction or not with PSD95 PDZ2” value with PSD95-PDZ2 [2] is “✕”. In the assay with PSD95-PDZ3 [3], the “interaction or not with PSD95 PDZ3” value was “✕”. In addition, the “interaction or not with Erbin PDZ” value with Erbin-PDZ [4] is recorded as “✕”. Besides, the “binding to Erbin-PDZ by ITC” value with Erbin-PDZ [4] (ITC, 25 °C, 50 mM potassium phosphate pH 7.5) is reported as “lack of binding”. In the assay with nNOS-PDZ, the “ΔTm of nNOS-PDZ” value was 2 °C and the “interaction or not with nNOS PDZ” value is “✓”.
Take IAESSV [HTLV3 Tax]: the Kd on PSD95-PDZ2 [2] worked out at 20 ± 3.8 µM; at PSD95-PDZ3 [3], 43 ± 10 µM; on Erbin-PDZ [4] (ITC, 25 °C), 23 ± 9 µM.
At PSD95-PDZ2 [2], KIATLV [AdV E4 ORF1] showed a dissociation constant (Kd) of 11.5 ± 0.5 µM.
Regarding KKETAV, the “ΔTm of PSD95-PDZ3” value on PSD95-PDZ3 [5] (DSC, PDZ:peptide 1:3) is “about 9 °C”. The Kd with PSD95-PDZ3 [5] (ITC, same concentrations as this study) is 1.5 µM.
Consider “LLDEIAV [CAPON, C-terminus of CAPON, cytoplasmic protein; class II peptide, cognate nNOS partner]”, for which the “interaction or not with PSD95 PDZ2” value at PSD95-PDZ2 [2] was “✕”. The “interaction or not with PSD95 PDZ3” value at PSD95-PDZ3 [3] is on record as “✕”. Moreover, the “interaction or not with Erbin PDZ” value on Erbin-PDZ [4] is listed as “✕”. Also, in the assay with nNOS-PDZ, the “ΔTm of nNOS-PDZ” value came out at 3 °C and the “interaction or not with nNOS PDZ” value is recorded as “✓”.
For the substance TGWETWV [Erbin PDZ binder], the dissociation constant (Kd) at PSD95-PDZ2 [2] came out at 5.7 ± 0.2 µM; at Erbin-PDZ [4] (ITC, 25 °C) it was 0.24 ± 0.08 µM. In addition, the “ΔTm of PSD95-PDZ2” value at PSD95-PDZ2 [6] is “around 6 °C”.
Regarding “VVKVDSV [MelR, C-terminal region of a melatonin receptor]”, the “interaction or not with PSD95 PDZ2” value at PSD95-PDZ2 [2] was “✕”. Moreover, on PSD95-PDZ3 [3], the “interaction or not with PSD95 PDZ3” value is listed as “✕”. The “interaction or not with Erbin PDZ” value at Erbin-PDZ [4] is on record as “✕”. For the same substance, in the assay with nNOS-PDZ, the “ΔTm of nNOS-PDZ” value is 3 °C and the “interaction or not with nNOS PDZ” value is reported as “✓”.
